According to ChEMBL document CHEMBL1137817, “Potential antitumor-promoting diterpenes from the cones of Pinus luchuensis” (J Nat Prod, 2002):

Tests used:
Format in all cases: cell-based
Raji [1] = experiment: Inhibition of 12-O-tetradecanoylphorbol 13-acetate-induced Epstein-Barr virus early antigen activation in human Raji cells assessed as EA induction at 1000 mol ratio relative to TPA; design: scale not given: the % may be the effect or the level left; conditions: human gammaherpesvirus 4
Raji [2] = experiment: Inhibition of 12-O-tetradecanoylphorbol 13-acetate-induced Epstein-Barr virus early antigen activation in human Raji cells assessed as EA induction at 500 mol ratio relative to TPA; design: scale not given: the % may be the effect or the level left; conditions: human gammaherpesvirus 4
Raji [3] = experiment: Inhibition of 12-O-tetradecanoylphorbol 13-acetate-induced Epstein-Barr virus early antigen activation in human Raji cells assessed as EA induction at 100 mol ratio relative to TPA; design: scale not given: the % may be the effect or the level left; conditions: human gammaherpesvirus 4
Raji [4] = experiment: Inhibition of 12-O-tetradecanoylphorbol 13-acetate-induced Epstein-Barr virus early antigen activation in human Raji cells assessed as EA induction at 10 mol ratio relative to TPA; design: scale not given: the % may be the effect or the level left; conditions: human gammaherpesvirus 4
[5] = Cytotoxicity against human Raji cells assessed as cell viability at 1000 molar ratio after 48 hours relative to TPA; conditions: read-out: Activity

C=C[C@]1(C)C=C2CC[C@@H]3[C@](C)(CCC[C@@]3(C)C(=O)O)[C@H]2CC1 [SANDARACOPIMARIC ACID]
Activity (Raji [1]): 0% | Activity (Raji [2]): 22.5% | Activity (Raji [3]): 70.4% | Activity (Raji [4]): 91.9% | viability at 48 h, 1000 molar ratio relative to TPA [5]: 70%

CC(C)c1ccc2c(c1)CC[C@H]1[C@](C)(C(=O)O)CCC[C@]21C [DEHYDROABIETIC ACID]
Activity (Raji [1]): 2.9% | Activity (Raji [2]): 32.7% | Activity (Raji [3]): 69.8% | Activity (Raji [4]): 97.9% | viability at 48 h, 1000 molar ratio relative to TPA [5]: 70%

C=C1CC[C@@H]2[C@](C)(CCC[C@]2(C)C(=O)O)[C@H]1C/C=C(\C)C(=O)O
Activity (Raji [1]): 5% | Activity (Raji [2]): 47.1% | Activity (Raji [3]): 74.4% | Activity (Raji [4]): 93.4% | viability at 48 h, 1000 molar ratio relative to TPA [5]: 60%

C=C1CC[C@@H]2[C@](C)(CCC[C@]2(C)C(=O)O)[C@H]1C/C=C(\C)C=O
Activity (Raji [1]): 0% | Activity (Raji [2]): 31.4% | Activity (Raji [3]): 68.5% | Activity (Raji [4]): 91.4% | viability at 48 h, 1000 molar ratio relative to TPA [5]: 70%

C=C/C(C)=C/C[C@H]1C(=C)CC[C@@H]2[C@]1(C)CCC[C@]2(C)C(=O)O
Activity (Raji [1]): 4.4% | Activity (Raji [2]): 46.2% | Activity (Raji [3]): 75.3% | Activity (Raji [4]): 90.5% | viability at 48 h, 1000 molar ratio relative to TPA [5]: 60%

CC1=C(/C=C/C(C)=C/C=C/C(C)=C/C=C/C=C(C)/C=C/C=C(C)/C=C/C2=C(C)CCCC2(C)C)C(C)(C)CCC1 [BETA CAROTENE]
Activity (Raji [1]): 9% | Activity (Raji [2]): 34% | Activity (Raji [3]): 82% | Activity (Raji [4]): 100% | viability at 48 h, 1000 molar ratio relative to TPA [5]: 90%
